# According to US20250019387A1 (Frontier Medicines Corporation, priority 0001, published 2025):
# Molecular target: KRAS G12C and cRAF (Ras-binding domain) interaction (Homo sapiens (Human), UniProt P01116, C118S/C51S/C80L/G12C)
# Assay: Inhibition of KRAS G12C and cRAF binding (AlphaScreen)
# Conditions: GMPPNP-loaded KRAS G12C, 19-20 hours incubation with compound; read-out: IC50 (Inhibition of KRAS G12C and cRAF Binding)
# How it was run: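 IC50 values come from 4-parameter nonlinear regression of AlphaScreen signal (680 nm excitation, 570 nm emission). Compound plates sat 19-20 h at room temperature before RBD and donor/acceptor beads were added in Hepes pH 7.4 buffer with 150 mM NaCl, 5 mM MgCl2, 2% DMSO for 60-90 min; biotin-AviTag-GST replaced RBD to flag assay-technology interferers.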
# KRAS G12C and cRAF (Ras-binding domain) interaction, sequence (P01116 other isoform, or with tags, fused parts or gaps G12C/C51S/C80L/C118S): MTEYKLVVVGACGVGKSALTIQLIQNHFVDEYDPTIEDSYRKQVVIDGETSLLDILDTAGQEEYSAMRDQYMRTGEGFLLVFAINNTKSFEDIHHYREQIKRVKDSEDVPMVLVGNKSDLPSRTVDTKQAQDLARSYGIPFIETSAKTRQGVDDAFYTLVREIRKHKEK
structure (smiles),measurement,value
"C=CC(=O)N1CC[C@@H](N(C)c2nc(OC[C@@]34CCCN3C[C@H](F)C4)nc3c(F)c(-c4cccc5cc(F)cc(F)c45)ncc23)C1 [Example 268, 1-((R)-3-((7-(6,8-difluoronaphthalen-1-yl)-8-fluoro-2-(((2R,7aS)-2-fluorohexahydro-1H-pyrrolizin-7a-yl)methoxy)pyrido[4,3-d]pyrimidin-4-yl)(methyl)amino)pyrrolidin-1-yl)prop-2-en-1-one]",IC50,100 to 500 nM
"C=CC(=O)N1CC[C@@H](N(C)c2nc(OCC34CCCN3CCC4)nc3c(F)c(-c4cccc5c(F)cc(F)cc45)ncc23)C1 [Example 269, (R)-1-(3-((7-(5,7-difluoronaphthalen-1-yl)-8-fluoro-2-((hexahydro-1H-pyrrolizin-7a-yl)methoxy)pyrido[4,3-d]pyrimidin-4-yl)(methyl)amino)pyrrolidin-1-yl)prop-2-en-1-one]",IC50,100 to 500 nM
"Cc1nccc(/C=C/C(=O)N2CC[C@@H](N(C)c3nc(OC[C@@]45CCCN4C[C@H](F)C5)nc4c(F)c(-c5cccc6ccc(F)c(Cl)c56)ncc34)C2)n1 [Example 270, (E)-1-((R)-3-((7-(8-chloro-7-fluoronaphthalen-1-yl)-8-fluoro-2-(((2R,7aS)-2-fluorotetrahydro-1H-pyrrolizin-7a(5H)-yl)methoxy)pyrido[4,3-d]pyrimidin-4-yl)(methyl)amino)pyrrolidin-1-yl)-3-(2-methylpyrimidin-4-yl)prop-2-en-1-one]",IC50,10 to 100 nM
"Cc1nccc(/C=C/C(=O)N2CC[C@@H](N(C)c3nc(OC[C@@]45CCCN4C[C@H](F)C5)nc4c(F)c(-c5cccc6ccc(F)c(F)c56)ncc34)C2)n1 [Example 271, (E)-1-((R)-3-((7-(7,8-difluoronaphthalen-1-yl)-8-fluoro-2-(((2R,7aS)-2-fluorotetrahydro-1H-pyrrolizin-7a(5H)-yl)methoxy)pyrido[4,3-d]pyrimidin-4-yl)(methyl)amino)pyrrolidin-1-yl)-3-(2-methylpyrimidin-4-yl)prop-2-en-1-one]",IC50,10 to 100 nM
"Cc1cc(/C=C/C(=O)N2CC[C@@H](N(C)c3nc(OC[C@@]45CCCN4C[C@H](F)C5)nc4c(F)c(-c5cccc6ccc(F)c(Cl)c56)ncc34)C2)nc(C)n1 [Example 272, (E)-1-((R)-3-((7-(8-chloro-7-fluoronaphthalen-1-yl)-8-fluoro-2-(((2R,7aS)-2-fluorotetrahydro-1H-pyrrolizin-7a(5H)-yl)methoxy)pyrido[4,3-d]pyrimidin-4-yl)(methyl)amino)pyrrolidin-1-yl)-3-(2,6-dimethylpyrimidin-4-yl)prop-2-en-1-one]",IC50,10 to 100 nM
"Cc1cc(/C=C/C(=O)N2CC(CN(C)c3nc(OC[C@@]45CCCN4C[C@H](F)C5)nc4c(F)c(-c5cccc6ccc(F)c(Cl)c56)ncc34)C2)nc(C)n1 [Example 273, (E)-1-(3-(((7-(8-chloro-7-fluoronaphthalen-1-yl)-8-fluoro-2-(((2R,7aS)-2-fluorotetrahydro-1H-pyrrolizin-7a(5H)-yl)methoxy)pyrido[4,3-d]pyrimidin-4-yl)(methyl)amino)methyl)azetidin-1-yl)-3-(2,6-dimethylpyrimidin-4-yl)prop-2-en-1-one]",IC50,100 to 500 nM
"Cc1cc(/C=C/C(=O)N2CC(CN(C)c3nc(OC[C@@]45CCCN4C[C@H](F)C5)nc4c(F)c(-c5cccc6ccc(F)c(F)c56)ncc34)C2)nc(C)n1 [Example 274, (E)-1-(3-(((7-(7,8-difluoronaphthalen-1-yl)-8-fluoro-2-(((2R,7aS)-2-fluorotetrahydro-1H-pyrrolizin-7a(5H)-yl)methoxy)pyrido[4,3-d]pyrimidin-4-yl)(methyl)amino)methyl)azetidin-1-yl)-3-(2,6-dimethylpyrimidin-4-yl)prop-2-en-1-one]",IC50,10 to 100 nM
"Cc1cc(/C=C/C(=O)N2CC(CN(C)c3nc(OC[C@@]45CCCN4C[C@H](F)C5)nc4c(F)c(-c5cccc6cccc(Cl)c56)ncc34)C2)nc(C)n1 [Example 275, (E)-1-(3-(((7-(8-chloronaphthalen-1-yl)-8-fluoro-2-(((2R,7aS)-2-fluorohexahydro-1H-pyrrolizin-7a-yl)methoxy)pyrido[4,3-d]pyrimidin-4-yl)(methyl)amino)methyl)azetidin-1-yl)-3-(2,6-dimethylpyrimidin-4-yl)prop-2-en-1-one]",IC50,100 to 500 nM
"CN1CC(=CC(=O)N2CC[C@@H](N(C)c3nc(OC[C@@]45CCCN4C[C@H](F)C5)nc4c(F)c(-c5cccc6cccc(Cl)c56)ncc34)C2)C1 [Example 276, 1-((R)-3-((7-(8-chloronaphthalen-1-yl)-8-fluoro-2-(((2R,7aS)-2-fluorotetrahydro-1H-pyrrolizin-7a(5H)-yl)methoxy)pyrido[4,3-d]pyrimidin-4-yl)(methyl)amino)pyrrolidin-1-yl)-2-(1-methylazetidin-3-ylidene)ethan-1-one]",IC50,10 to 100 nM
"CCc1c(F)ccc2cccc(-c3ncc4c(N(C)[C@@H]5CCN(C(=O)/C=C/c6ccnc(C)n6)C5)nc(OC[C@@]56CCCN5C[C@H](F)C6)nc4c3F)c12 [Example 277, (E)-1-((R)-3-((7-(8-ethyl-7-fluoronaphthalen-1-yl)-8-fluoro-2-(((2R,7aS)-2-fluorohexahydro-1H-pyrrolizin-7a-yl)methoxy)pyrido[4,3-d]pyrimidin-4-yl)(methyl)amino)pyrrolidin-1-yl)-3-(2-methylpyrimidin-4-yl)prop-2-en-1-one]",IC50,100 to 500 nM
"C#Cc1c(F)ccc2cccc(-c3ncc4c(N(C)[C@@H]5CCN(C(=O)/C=C/c6ccnc(C)n6)C5)nc(OC[C@@]56CCCN5C[C@H](F)C6)nc4c3F)c12 [Example 278, (E)-1-((R)-3-((7-(8-ethynyl-7-fluoronaphthalen-1-yl)-8-fluoro-2-(((2R,7aS)-2-fluorotetrahydro-1H-pyrrolizin-7a(5H)-yl)methoxy)pyrido[4,3-d]pyrimidin-4-yl)(methyl)amino)pyrrolidin-1-yl)-3-(2-methylpyrimidin-4-yl)prop-2-en-1-one]",IC50,10 to 100 nM
"CCc1c(F)ccc2cccc(-c3ncc4c(N(C)[C@@H]5CCN(C(=O)/C=C/c6cc(C)nc(C)n6)C5)nc(OC[C@@]56CCCN5C[C@H](F)C6)nc4c3F)c12 [Example 279, (E)-3-(2,6-dimethylpyrimidin-4-yl)-1-((R)-3-((7-(8-ethyl-7-fluoronaphthalen-1-yl)-8-fluoro-2-(((2R,7aS)-2-fluorotetrahydro-1H-pyrrolizin-7a(5H)-yl)methoxy)pyrido[4,3-d]pyrimidin-4-yl)(methyl)amino)pyrrolidin-1-yl)prop-2-en-1-one]",IC50,100 to 500 nM
"C#Cc1c(F)ccc2cccc(-c3ncc4c(N(C)CC5CN(C(=O)/C=C/c6cc(C)nc(C)n6)C5)nc(OC[C@@]56CCCN5C[C@H](F)C6)nc4c3F)c12 [Example 280, (E)-3-(2,6-dimethylpyrimidin-4-yl)-1-(3-(((7-(8-ethynyl-7-fluoronaphthalen-1-yl)-8-fluoro-2-(((2R,7aS)-2-fluorotetrahydro-1H-pyrrolizin-7a(5H)-yl)methoxy)pyrido[4,3-d]pyrimidin-4-yl)(methyl)amino)methyl)azetidin-1-yl)prop-2-en-1-one]",IC50,10 to 100 nM
"Cc1c(F)ccc2c(-c3ncc4c(N(C)[C@@H]5CCN(C(=O)/C=C/CN(C)C)C5)nc(OC[C@@]56CCCN5C[C@H](F)C6)nc4c3F)cccc12 [Example 281, (E)-4-(dimethylamino)-1-((R)-3-((8-fluoro-7-(6-fluoro-5-methylnaphthalen-1-yl)-2-(((2R,7aS)-2-fluorotetrahydro-1H-pyrrolizin-7a(5H)-yl)methoxy)pyrido[4,3-d]pyrimidin-4-yl)(methyl)amino)pyrrolidin-1-yl)but-2-en-1-one]",IC50,100 to 500 nM
"Cc1c(F)ccc2c(-c3ncc4c(N(C)[C@@H]5CCN(C(=O)/C=C/[C@H]6CCN6C)C5)nc(OC[C@@]56CCCN5C[C@H](F)C6)nc4c3F)cccc12 [Example 282, (E)-1-((R)-3-((8-fluoro-7-(6-fluoro-5-methylnaphthalen-1-yl)-2-(((2R,7aS)-2-fluorotetrahydro-1H-pyrrolizin-7a(5H)-yl)methoxy)pyrido[4,3-d]pyrimidin-4-yl)(methyl)amino)pyrrolidin-1-yl)-3-((R)-1-methylazetidin-2-yl)prop-2-en-1-one]",IC50,100 to 500 nM
"CCc1c(F)ccc2cccc(-c3ncc4c(N(C)CC5CN(C(=O)/C=C/c6cc(C)nc(C)n6)C5)nc(OC[C@@]56CCCN5C[C@H](F)C6)nc4c3F)c12 [Example 283, (E)-3-(2,6-dimethylpyrimidin-4-yl)-1-(3-(((7-(8-ethyl-7-fluoronaphthalen-1-yl)-8-fluoro-2-(((2R,7aS)-2-fluorotetrahydro-1H-pyrrolizin-7a(5H)-yl)methoxy)pyrido[4,3-d]pyrimidin-4-yl)(methyl)amino)methyl)azetidin-1-yl)prop-2-en-1-one]",IC50,100 to 500 nM
"C=CC(=O)N1C[C@@H](N(C)c2nc(OC[C@@]34CCCN3C[C@H](F)C4)nc3c(F)c(-c4cccc5cccc(Cl)c45)ncc23)C(F)(F)C1 [Example 285, 1-((R)-4-((7-(8-chloronaphthalen-1-yl)-8-fluoro-2-(((2R,7aS)-2-fluorotetrahydro-1H-pyrrolizin-7a(5H)-yl)methoxy)pyrido[4,3-d]pyrimidin-4-yl)(methyl)amino)-3,3-difluoropyrrolidin-1-yl)prop-2-en-1-one]",IC50,> 500 nM
"C#Cc1c(F)ccc2cccc(-c3ncc4c(N(C)[C@@H]5CCN(C(=O)/C=C/CN6CC[C@H](OC)C6)C5)nc(OC[C@@]56CCCN5C[C@H](F)C6)nc4c3F)c12 [Example 286, (E)-1-((R)-3-((7-(8-ethynyl-7-fluoronaphthalen-1-yl)-8-fluoro-2-(((2R,7aS)-2-fluorotetrahydro-1H-pyrrolizin-7a(5H)-yl)methoxy)pyrido[4,3-d]pyrimidin-4-yl)(methyl)amino)pyrrolidin-1-yl)-4-((S)-3-methoxypyrrolidin-1-yl)but-2-en-1-one]",IC50,10 to 100 nM
